One data set addresses T1, Androgen receptor (Homo sapiens, UniProt P10275).
T1 sequence (P10275 whole entry): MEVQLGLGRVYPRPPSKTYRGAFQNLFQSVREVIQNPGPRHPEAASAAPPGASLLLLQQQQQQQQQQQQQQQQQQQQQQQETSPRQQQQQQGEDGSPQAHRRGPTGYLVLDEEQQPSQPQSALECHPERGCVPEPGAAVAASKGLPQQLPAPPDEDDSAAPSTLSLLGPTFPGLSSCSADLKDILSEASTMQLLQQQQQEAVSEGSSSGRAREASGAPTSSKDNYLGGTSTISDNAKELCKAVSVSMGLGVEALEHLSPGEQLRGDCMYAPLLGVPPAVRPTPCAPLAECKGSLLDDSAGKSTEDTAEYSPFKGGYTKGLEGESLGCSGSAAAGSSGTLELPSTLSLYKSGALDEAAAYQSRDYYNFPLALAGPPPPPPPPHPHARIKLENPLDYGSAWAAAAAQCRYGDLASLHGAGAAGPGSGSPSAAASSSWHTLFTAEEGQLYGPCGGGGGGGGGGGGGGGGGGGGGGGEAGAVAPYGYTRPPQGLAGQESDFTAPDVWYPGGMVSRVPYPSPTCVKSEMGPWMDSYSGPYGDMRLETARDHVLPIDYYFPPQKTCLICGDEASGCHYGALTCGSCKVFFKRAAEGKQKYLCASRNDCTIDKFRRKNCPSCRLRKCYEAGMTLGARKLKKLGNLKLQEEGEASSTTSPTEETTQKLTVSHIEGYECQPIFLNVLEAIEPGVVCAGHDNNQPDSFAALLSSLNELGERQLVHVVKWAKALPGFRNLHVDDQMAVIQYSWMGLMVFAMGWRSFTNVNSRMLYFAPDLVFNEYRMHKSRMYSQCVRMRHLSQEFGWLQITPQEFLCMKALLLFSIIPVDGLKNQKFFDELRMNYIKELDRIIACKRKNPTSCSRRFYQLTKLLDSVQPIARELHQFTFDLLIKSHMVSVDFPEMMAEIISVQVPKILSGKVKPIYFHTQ
Briefly: Agonist activity at AR in human MDA-MB-453 cells assessed as increase in […] gene expression at 111 to 333 nM incubated for 24 hrs by RT-qPCR method. As to conditions: mda-mb-453, 24 h, 0.333 µM; call rule not given here. It counts as cell-based. A general note: Quantitative PCR measures a nucleic acid by following its amplification.

A further data set addresses T2, Glucocorticoid receptor (Homo sapiens, UniProt P04150).
T2 sequence (P04150 whole entry): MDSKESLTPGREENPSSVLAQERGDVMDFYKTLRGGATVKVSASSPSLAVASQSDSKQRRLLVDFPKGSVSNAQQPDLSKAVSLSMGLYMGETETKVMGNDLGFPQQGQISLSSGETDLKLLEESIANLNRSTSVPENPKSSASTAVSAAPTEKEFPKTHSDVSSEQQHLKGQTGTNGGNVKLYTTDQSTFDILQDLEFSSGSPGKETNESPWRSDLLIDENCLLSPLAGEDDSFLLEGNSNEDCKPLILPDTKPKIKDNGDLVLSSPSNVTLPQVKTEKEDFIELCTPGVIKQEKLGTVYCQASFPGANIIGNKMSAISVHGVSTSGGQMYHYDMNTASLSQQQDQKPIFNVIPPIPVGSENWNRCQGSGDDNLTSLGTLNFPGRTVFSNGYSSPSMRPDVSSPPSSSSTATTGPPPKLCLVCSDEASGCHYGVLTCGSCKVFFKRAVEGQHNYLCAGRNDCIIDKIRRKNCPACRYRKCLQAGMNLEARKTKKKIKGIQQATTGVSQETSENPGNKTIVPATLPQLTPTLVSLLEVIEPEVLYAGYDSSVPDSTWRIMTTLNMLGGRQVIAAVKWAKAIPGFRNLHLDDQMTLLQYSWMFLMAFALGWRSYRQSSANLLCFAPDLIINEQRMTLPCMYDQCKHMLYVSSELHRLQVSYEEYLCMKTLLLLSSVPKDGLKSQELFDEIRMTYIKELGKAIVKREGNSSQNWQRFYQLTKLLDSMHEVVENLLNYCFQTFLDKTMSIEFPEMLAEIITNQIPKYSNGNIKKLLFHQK
Kind of data set: Agonist activity at human GR expressed in CHO-K1 cells incubated for 20 hrs by luciferase reporter gene assay. It counts as cell-based. For orientation: Reporter assays use an easily measured gene product as a stand-in for the process of interest.

From ChEMBL document CHEMBL4145686, “Discovery of a Potent and Selective Steroidal Glucocorticoid Receptor Antagonist (ORIC-101)” (J Med Chem, 2018) come the findings set out here.

Each structure is given as a SMILES string.

One may read the EC50 as the concentration that produces a half-maximal response. Lower therefore signals an effect from little substance.

Regarding `CC(C)N(C)c1ccc([C@H]2C[C@@]3(C)[C@@H](CC[C@@]3(O)C#CC(C)(C)C)[C@@H]3CCC4=CC(=O)CC[C@@H]4[C@H]32)cc1`, the Activity result at Androgen receptor is “Not Active”. The molecule further displayed an EC50 on Glucocorticoid receptor of more than 2.5 µM.
